The test system of one series is HepG2 cells. Description: Stimulation of collagen expression (cDNA microarray), Apomine treated versus control HepG2 cells. Conditions: gene expression; for fold induction at 1 µM: Homo sapiens, HepG2, 1 μM Apomine vs ethanol vehicle control. The class given is cell-based, human. As to the method:
HepG2 cells were grown in Dulbecco's modified Eagle medium (DMEM) supplemented with 10% FBS. Cells were harvested when they were about 80-90% confluent and were directly subjected to RNA isolation. Treated cells were incubated with 1 μM Apomine and control cells were incubated with a volume of ethanol used as vehicle for the Apomine.
DNA microarray slides used in this study were fabricated in the microarray core facilities at the Arizona Cancer Center (Calaluce et al., 2001). Each slide has 5760 spots divided into 4 blocks. Each block contains the same 8 ice plant genes from Mesembryanthemum crystallinum and 23 different housekeeping genes as references for data normalization. Overall, each slide has 5289 unique human cDNA sequences.
Poly(A)^+ RNA was directly isolated from cell pellets using the FastTrack 2.0 Kit (Invitrogen, Carsbad, Calif.) following the instruction manual provided by the manufacturer. Each RNA sample was inspected by denaturing agarose gel electrophoresis to ensure the quality of the preparation. Labeling and purification of cDNA probes were carried out using the MICROMAX direct cDNA microarray system (NEN Life Science Products, Boston, Mass.). Two to four micrograms of the poly(A)+ RNA samples were used for each labeling. Probes for Apomine treated HepG2 cells were labeled with Cyanine 5 (Cy5) and probes for HeLa cell was labeled with Cyanine 3 (Cy3). For investigation of control Hep2G cells, these cells were labeled with Cy3 and probes for HeLa cells were labeled with Cy5. Purified cDNA probes were dried and dissolved in 15 μL of Hybridization Buffer (included in the MICROMAX direct cDNA microarray system kit). The probes were then denatured by heating at 95° C. for 2 min and applied to the array area of a pre-denatured microarray slide. The microarray slide was covered with a […] slide cover slip and incubated in a HybChamber (GeneMachines, San Carlos, Calif.) at 62° C. for overnight. On the second day, the slide was washed in 0.5×SSC, 0.01% SDS for 5 min, 0.06×SSC, 0.01% SDS for 5 min, and 0.06×SCC for 2 min. Finally, the slide was dried by spinning at 500 g for 1 min and scanned in a dual-laser (635 nm for red fluorescent Cy5 and 532 nM for green fluorescent Cy3) microarray scanner (GenePix 4000, Axon Instruments, Foster City, Calif.).
Fluorescence intensities for both dyes (Cy3 and Cy5) and local background subtracted values for individual spots were obtained using the GenePix 4000 microarray scanner and accompanying software (Axon Instruments, Foster City, Calif.). The data were imported into Microsoft Excel spreadsheets for analysis. Defective spots, i.e., ones that are sub-standard on the scanned image or have negative background subtracted values, were first filtered. To minimize the effects of measurement variations introduced by artificial sources during experiments, only spots that had significant signals in both channels were included. The determination of this significance is based on signal intensities of non-homologous ice plant genes. Generally, if the signal intensity of a spot is less than the average of ice plant spots, the signal was considered as non-significant. In this analysis the significance cutoff for signal to background ratio as 1.4 was determined empirically. Thus, a spot was excluded in further analysis if it has a signal to background ratio less than 1.4 in both channels. For each spot, the median of ratios (the median of the pixel-by-pixel ratios of pixel intensities that have the median background intensity subtracted) was used in subsequent analysis. Spots representing housekeeping genes were used to normalize the entire slide so that all slides can be compared directly. For each pancreatic cell line, at least two hybridizations were carried out. The average of median ratios from replicates was calculated for each spot. […]

Series [1] can be described thus: Percutaneous absorption of Apomine: plasma level after topical application. It counts as in vivo, female Swiss nude (nu/nu) mice. The note with it: female, Swiss nude (nu/nu), mouse, three hours after the last application. As to the method:
Plasma concentrations of Apomine are measured with a Hewlett Packard gas chromatograph using a nitrogen phosphorus detector and HP-5 15 m×0.32 mm column. Alberts et al., 2001). Apomine is extracted from plasma with methyl t-butyl ether (MTBE). To 250 μl of plasma sample, 10 μl of a methanolic solution of the internal standard (n-propyl phoposhonate analog of Apomine) at a final concentration of 4 μg/ml are added and mixed by vortexing. The compound and internal standard are extracted with 500 μl MTBE and 30 sec vigorous shaking. The organic layer obtained by centrifugation (5 min at 13,000 rpm) is dried under nitrogen and reconstituted in 250 μl MTBE of which 2 μl is injected with an autoampler for analysis. A calibration curve is established with plasma from untreated mice spiked with different concentrations of Apomine. The calibration curve is used to interpolate the concentrations of Apomine in the samples using the peak area ratio values.
Apomine (1 mg) was topically applied to five to six week old female Swiss nude (nu/nu) mice by application of 20 μl of a 50 mg/ml solution of Apomine in acetone. Treatment was continued daily for 24 days. Three hours after the last application the mice were sacrificed and plasma Apomine levels were measured. The plasma concentration was 1.12±0.10 μg/ml plasma (n=6), which is 2 μM Apomine. […]

The conditions of series [2]: patients, 75 mg/m^2 twice a day orally for 14 days; cited from earlier work.

Read-outs that look alike come from different tables or passages of the source.

The source of these data is patent publication US20050232891A1, “Methods of treating skin with diphosphonate derivatives” (ILEX Products Inc., priority 2001, published 2005).

For `CC(C)OP(=O)(OC(C)C)C(Cc1cc(C(C)(C)C)c(O)c(C(C)(C)C)c1)P(=O)(OC(C)C)OC(C)C` [Apomine, tetraisopropyl 2-(3,5-di-tert-butyl-4-hydroxyphenyl)-ethylidene-1,1-diphosphonate], the “Fold induction, Procollagen, type III” value in the series with HepG2 cells (1 μM Apomine vs ethanol vehicle control) is 6.49 fold. For the same compound, the fold induction at 1 µM in the series on HepG2 cells (read-out: Fold induction, Collagen, type I, alpha 2) came to 1.65; in the series with HepG2 cells (read-out: Fold induction, Collagen, type II, alpha 1), 5.5; in the series with HepG2 cells (read-out: Fold induction, Collagen, type IV, alpha 4), 1.7; with HepG2 cells (read-out: Fold induction, Collagen, type IX, alpha 3) it was 1.4; with HepG2 cells (read-out: Fold induction, Collagen, type V, alpha 1), 1.42; with HepG2 cells (read-out: Fold induction, Collagen, type VI, alpha 2), 2.4. Besides, the fold induction at 1 µM in the series on HepG2 cells (read-out: Fold induction, Collagen, type VI, alpha 3) was 1.16; in the series on HepG2 cells (read-out: Fold induction, Collagen, type XI, alpha 1), 2.66; in the series with HepG2 cells (read-out: Fold induction, Procollagen, type III), more than 6. The concentration at 3 h was 1120 ± 100 ng/mL in series [1] (1 mg topically (20 μl of 50 mg/ml in acetone) daily for 24 days, n=6) and 2000 nM in series [1] (1 mg topically daily for 24 days). In addition, the adverse effects result in series [2] is “no adverse effects”.
